According to patent US11673880B2, “Solid state forms of ivosidenib” (ASSIA CHEMICAL INDUSTRIES LTD., priority 2017, dated 2023):

What was measured:
Type in all cases: physicochemical
[1] = Thermogravimetric analysis (TGA) of Forms T14 and T15; conditions: temperature changed from 27.1° C. to 170° C.
Method: Procedure for Thermo Gravimetric Analysis (TGA) for Forms T14 and T15:
Thermogravimetric analysis was conducted on a TA instrument Q500 thermogravimetric analyzer. About 9.4 mg sample was placed into a tared TGA crucible and placed into a TGA furnace. The furnace was heated under nitrogen at a heating rate of 10° C./min up to 250° C.

[2] = Karl Fischer water content
Method: Water content analysis was performed on Metrohm 890 Titando instrument. About 100 mg sample was added to the titrator, the water content is measured in % w/w by measuring the amount of iodine consumed as a result of reaction with water in the sample.

[3] = Stability and flowability of the solid form (statement, no method given)

weight loss of the weight of the sample (TGA) [1]	moisture / water content (KF Titration method) [2] [%]	flowability [3]	stability of the crystalline form [3]	Compound
about 3.899%	3.39	–	–	N#Cc1ccnc(N2C(=O)CC[C@H]2C(=O)N(c2cncc(F)c2)[C@H](C(=O)NC2CC(F)(F)C2)c2ccccc2Cl)c1 [Form T15, Ivosidenib]
–	–	very good flowability	stable	N#Cc1ccnc(N2C(=O)CC[C@H]2C(=O)N(c2cncc(F)c2)[C@H](C(=O)NC2CC(F)(F)C2)c2ccccc2Cl)c1 [Form T11, Ivosidenib]
about 2.786%	2.7	–	–	N#Cc1ccnc(N2C(=O)CC[C@H]2C(=O)N(c2cncc(F)c2)[C@H](C(=O)NC2CC(F)(F)C2)c2ccccc2Cl)c1 [Form T14, Ivosidenib]
